The test system of data set [1] is U373-MAGI. In words: Effect on dRGU-TP level in human U373-MAGI cells at 200 nM preincubated for 2 hrs followed by 5-aza-dC addition measured after 4 hrs by LC-MS/MS analysis. The format is functional, cell-based.
The test system of data set [2] is U373-MAGI. Kind of data set: Reduction in dCTP level in human U373-MAGI cells at 50 nM preincubated for 2 hrs followed by 5-aza-dC addition measured after 4 hrs by LC-MS/MS analysis relative to 5-aza-dC. The class given is functional, cell-based.
In data set [3] the test system is U373-MAGI. Kind of data set: Reduction in dCTP level in human U373-MAGI cells at 200 nM preincubated for 2 hrs followed by 5-aza-dC addition measured after 4 hrs by LC-MS/MS analysis relative to 5-aza-dC. The class given is functional, cell-based.
For data set [4], the system named is U373-MAGI. Kind of data set: Reduction in dCTP level in human U373-MAGI cells at 50 nM after 6 hrs by LC-MS/MS analysis. The class given is functional, cell-based.
The test system of data set [5] is U373-MAGI. In words: Reduction in dCTP level in human U373-MAGI cells at 200 nM after 6 hrs by LC-MS/MS analysis. The format is functional, cell-based.
The nature of data set [6]: Reduction in dATP level in human U373-MAGI cells at 50 nM after 6 hrs by LC-MS/MS analysis. The format is functional. On the set-up: scale not given: the % may be the effect or the level left.
The test system of data set [7] is U373-MAGI. In words: Reduction in dATP level in human U373-MAGI cells at 200 nM after 6 hrs by LC-MS/MS analysis. The format is functional, cell-based.
For data set [8], the system named is U373-MAGI. In words: Effect on 5-aza-dCTP level in human U373-MAGI cells at 50 nM preincubated for 2 hrs followed by 5-aza-dC addition measured after 4 hrs by LC-MS/MS analysis. The class given is functional, cell-based.
The test system of data set [9] is U373-MAGI. Kind of data set: Effect on 5-aza-dCTP level in human U373-MAGI cells at 200 nM preincubated for 2 hrs followed by 5-aza-dC addition measured after 4 hrs by LC-MS/MS analysis. The class given is functional, cell-based.
In data set [10] the test system is U373-MAGI. In words: Reduction in dCTP level in human U373-MAGI cells at 50 nM preincubated for 2 hrs followed by 5-aza-C addition measured after 4 hrs by LC-MS/MS analysis. The class given is functional, cell-based.
The test system of data set [11] is U373-MAGI. Kind of data set: Reduction in dCTP level in human U373-MAGI cells at 200 nM preincubated for 2 hrs followed by 5-aza-C addition measured after 4 hrs by LC-MS/MS analysis relative to 5-aza-C. The format is functional, cell-based.
In data set [12] the test system is U373-MAGI. Kind of data set: Effect on dRGU-TP level in human U373-MAGI cells at 50 nM preincubated for 2 hrs followed by 5-aza-dC addition measured after 4 hrs by LC-MS/MS analysis. The format is functional, cell-based.
In data set [13] the test system is U373-MAGI. Kind of data set: Reduction in dRGU-TP level in human U373-MAGI cells at 50 nM preincubated for 2 hrs followed by 5-aza-C addition measured after 4 hrs by LC-MS/MS analysis. The class given is functional, cell-based.
For data set [14], the system named is U373-MAGI. In words: Reduction in dRGU-TP level in human U373-MAGI cells at 200 nM preincubated for 2 hrs followed by 5-aza-C addition measured after 4 hrs by LC-MS/MS analysis. The format is functional, cell-based.
In data set [15] the test system is U373-MAGI. Kind of data set: Increase in 5-aza-dCTP/dCTP ratio in human U373-MAGI cells at 50 nM preincubated for 2 hrs followed by 5-aza-dC addition measured after 4 hrs by LC-MS/MS analysis relative to 5-aza-dC. The format is functional, cell-based.
The subject of data set [16] is U373-MAGI. Kind of data set: Increase in 5-aza-dCTP/dCTP ratio in human U373-MAGI cells at 200 nM preincubated for 2 hrs followed by 5-aza-dC addition measured after 4 hrs by LC-MS/MS analysis relative to 5-aza-dC. The format is functional, cell-based.
Data set [17] concerns U373-MAGI. Kind of data set: Increase in 5-aza-dCTP/dCTP ratio in human U373-MAGI cells at 50 nM preincubated for 2 hrs followed by 5-aza-C addition measured after 4 hrs by LC-MS/MS analysis relative to 5-aza-C. The class given is functional, cell-based.
Data set [18] concerns Human immunodeficiency virus 1. Kind of data set: Potentiation of 5-Aza-C-induced antiviral activity against VSV-G pseudotyped HIV-1 NL4-3 infected in human U373-MAGI cells assessed as decrease in 5-Aza-C EC50 at 50 nM preincubated for 2 hrs followed by 5-Aza-C addition for 2 hrs and subsequent viral infection measured at 72 hrs post infection by flow cytometric analysis relative to control. The class given is functional. (In general: In flow cytometry, cells or beads pass a laser one at a time.)

The test system of data set [19] is Human immunodeficiency virus 1. In words: Antiviral activity against VSV-G pseudotyped HIV-1 NL4-3 infected in human U373-MAGI cells assessed as reduction in viral infectivity at 50 nM incubated for 4 hrs prior to viral infection measured at 72 hrs post infection by flow cytometric analysis. The class given is functional, organism-based.
Data set [20] can be described thus: Cytotoxicity against human U373-MAGI cells at 50 nM measured at 72 hrs by Celltiter-Glo luminescent cell viability assay. The class given is cell-based. To be noted: 0.05 µM.
Data set [21] has as its system U373-MAGI. Kind of data set: Reduction in dTTP level in human U373-MAGI cells at 50 nM after 6 hrs by LC-MS/MS analysis. The format is functional, cell-based.
Data set [22] concerns U373-MAGI. In words: Increase in 5-aza-dCTP/dCTP ratio in human U373-MAGI cells at 200 nM preincubated for 2 hrs followed by 5-aza-C addition measured after 4 hrs by LC-MS/MS analysis relative to 5-aza-C. The format is functional, cell-based.
Data set [23] concerns U373-MAGI. In words: Reduction in 5-aza-dCTP level in human U373-MAGI cells at 50 nM preincubated for 2 hrs followed by 5-aza-C addition measured after 4 hrs by LC-MS/MS analysis. The format is functional, cell-based.
Data set [24] has as its system U373-MAGI. In words: Reduction in dTTP level in human U373-MAGI cells at 200 nM after 6 hrs by LC-MS/MS analysis. The class given is functional, cell-based.
Data set [25] relates to U373-MAGI. In words: Reduction in dGTP level in human U373-MAGI cells at 50 nM after 6 hrs by LC-MS/MS analysis. The class given is functional, cell-based.
Data set [26] deals with U373-MAGI. In words: Reduction in dGTP level in human U373-MAGI cells at 200 nM after 6 hrs by LC-MS/MS analysis. The format is functional, cell-based.
In data set [27] the test system is U373-MAGI. Kind of data set: Reduction in 5-aza-dCTP level in human U373-MAGI cells at 200 nM preincubated for 2 hrs followed by 5-aza-C addition measured after 4 hrs by LC-MS/MS analysis. The class given is functional, cell-based.
Data set [28] deals with Human immunodeficiency virus type 1 reverse transcriptase (Human immunodeficiency virus 1) (UniProt Q72547). In words: Inhibition of HIV-1 reverse transcriptase assessed as inhibition of primer extension using 5' 32P-end-labeled 17-mer DNA/40-mer RNA as primer/template up to 1 mM measured after 5 mins by PAGE analysis.
The subject of data set [29] is Human immunodeficiency virus 1. Kind of data set: Antiviral activity against VSV-G pseudotyped HIV-1 NL4-3 infected in human U373-MAGI cells assessed as reduction in U5-gag level at 5 to 200 nM measured at 6 to 12 hrs post infection by qPCR method. The class given is functional, organism-based. On the technique in general: Real-time PCR tracks product formation cycle by cycle.

In data set [30] the test system is Human immunodeficiency virus 1. Kind of data set: Antiviral activity against VSV-G pseudotyped HIV-1 NL4-3 infected in human U373-MAGI cells assessed as reduction in U5-gag level at 50 or 100 nM measured at 72 hrs post infection by qPCR method. The class given is functional, organism-based.
For data set [31], the system named is Human immunodeficiency virus 1. Kind of data set: Antiviral activity against VSV-G pseudotyped HIV-1 NL4-3 infected in human U373-MAGI cells assessed as reduction in gag level at 5 to 200 nM measured at 6 to 12 hrs post infection by qPCR method. The format is functional, organism-based.
Data set [32] deals with Human immunodeficiency virus 1. In words: Antiviral activity against VSV-G pseudotyped HIV-1 NL4-3 infected in human U373-MAGI cells assessed as reduction in gag level at 50 or 100 nM measured at 72 hrs post infection by qPCR method. The class given is functional, organism-based.

The source made the active and inactive calls. The rule behind the calls is not given here.

The text below walks through data of ChEMBL document CHEMBL3797079, “Synergistic reduction of HIV-1 infectivity by 5-azacytidine and inhibitors of ribonucleotide reductase” (Bioorg Med Chem, 2016).

Consider `Nc1nc(Cl)nc2c1ncn2[C@@H]1O[C@H](CO)[C@@H](O)[C@@H]1F` [CLOFARABINE], for which the result with U373-MAGI [1], in the data set with U373-MAGI [4], in the data set on U373-MAGI [8], with U373-MAGI [9], in the data set on U373-MAGI [12] and in the data set with U373-MAGI [13] was inactive. The result in the data set with U373-MAGI [17], in the data set with U373-MAGI [21], in the data set with U373-MAGI [22], with U373-MAGI [23], in the data set with U373-MAGI [24] and in the data set with U373-MAGI [25] was inactive. The result in the data set with U373-MAGI [2], in the data set on U373-MAGI [3], in the data set with U373-MAGI [5], in the data set on U373-MAGI [7], with U373-MAGI [10] and in the data set with U373-MAGI [11] was Active. Moreover, the result (in the data set with U373-MAGI [14]; in the data set with U373-MAGI [15]; in the data set with U373-MAGI [16]; in data set [19]; with U373-MAGI [26]; in the data set on U373-MAGI [27]) was Active. For the same compound, the Activity in data set [6] is 30%; in [20], “Non-toxic”. In addition, the “fold change (FC)” value in data set [18] worked out at 2.5.
Regarding `Nc1ncn([C@@H]2O[C@H](COP(=O)(O)OP(=O)(O)OP(=O)(O)O)[C@@H](O)[C@H]2O)c(=O)n1`, the inhibition entry in data set [28] is “inactive”.
On the same count and under the same terms, the result for `Nc1ncn([C@H]2C[C@H](O)[C@@H](COP(=O)(O)OP(=O)(O)OP(=O)(O)O)O2)c(=O)n1` reads “inactive”.
In the case of `Cc1nnc(C(=O)NC(C)(C)c2nc(C(=O)NCc3ccc(F)cc3)c(O)c(=O)n2C)o1`, the outcome in [29] and in data set [31] was inactive. The result in [30] and in [32] was Active.
